SMILES strings stand for the structures.

The target in experiment [1] is Human immunodeficiency virus type 1 reverse transcriptase (Human immunodeficiency virus 1) (UniProt Q72547). The experiment can be described thus: Inhibition of wild type HIV1 p66/p51 reverse transcriptase assessed as apparent Vmax at 150 nM using 10 to 500 uM poly(rA)/oligo(dT) as templates in presence of fixed concentration of [3H]dTTP by Michaelis-Menten analysis (reference value: 10 +/- 0.5%).

In experiment [2] the test system is Human immunodeficiency virus 1. The experiment in a line: Ratio of Koff of HIV-1 p66/p51 reverse transcriptase K103N/Y181C double mutant/nucleic acid/dTTP ternary complex to Koff of HIV-1 p66/p51 reverse transcriptase/nucleic acid binary complex using poly(rA)/oligo(dT) as templates in presence of [3H]dTTP.
The target of experiment [3] is T1, Human immunodeficiency virus type 1 reverse transcriptase (Human immunodeficiency virus 1, UniProt Q72547). The experiment can be described thus: Binding affinity to wild type HIV-1 p66/p51 reverse transcriptase/nucleic acid/dTTP ternary complex using poly(rA)/oligo(dT) as templates in presence of [3H]dTTP.
The target in experiment [4] is Human immunodeficiency virus type 1 reverse transcriptase (Human immunodeficiency virus 1) (UniProt Q72547). The experiment can be described thus: Ratio of Koff of wild type HIV-1 p66/p51 reverse transcriptase/nucleic acid binary complex to Koff of wild type HIV-1 p66/p51 reverse transcriptase/nucleic acid/dTTP ternary complex using poly(rA)/oligo(dT) as templates in presence of [3H]dTTP.

Experiment [5] concerns the target T1, Human immunodeficiency virus type 1 reverse transcriptase. The experiment in a line: Binding affinity to free form of wild type HIV-1 p66/p51 reverse transcriptase using poly(rA)/oligo(dT) as templates in presence of [3H]dTTP.
In experiment [6] the test system is Human immunodeficiency virus 1. The experiment in a line: Inhibition of HIV1 p66/p51 reverse transcriptase K103N/Y181C double mutant assessed as apparent Km of substrate at 75 nM using fixed concentration of poly(rA)/oligo(dT) as templates in presence of 2 to 100 uM of [3H]dTTP by Michaelis-Menten analysis (reference value: 9.2 +/- 1.4 uM).
For experiment [7], the target named is Human immunodeficiency virus type 1 reverse transcriptase (Human immunodeficiency virus 1) (UniProt Q72547). The experiment can be described thus: Inhibition of wild type HIV1 p66/p51 reverse transcriptase assessed as apparent Vmax at 30 nM using fixed concentration of poly(rA)/oligo(dT) as templates in presence of 2 to 100 uM of [3H]dTTP by Michaelis-Menten analysis (reference value: 9.7 +/- 12%).

Experiment [8] concerns Human immunodeficiency virus 1. The experiment can be described thus: Inhibition of HIV1 p66/p51 reverse transcriptase K103N/Y181C double mutant assessed as apparent Vmax at 75 nM using 10 to 500 uM poly(rA)/oligo(dT) as templates in presence of fixed concentration of [3H]dTTP by Michaelis-Menten analysis (reference value: 12 +/- 1%).
The subject of experiment [9] is Human immunodeficiency virus 1. The experiment in a line: Antiviral activity against wild type HIV-1 P1 infected in human C8166 cells assessed as reduction in viral RNA production at 25 nM. The class given is functional. As to conditions: Human immunodeficiency virus 1, P1, C8166.
In experiment [10] the target is Human immunodeficiency virus type 1 reverse transcriptase (Human immunodeficiency virus 1) (UniProt Q72547). The experiment in a line: Binding affinity to wild type HIV-1 p66/p51 reverse transcriptase/nucleic acid binary complex assessed as dissociation constant using poly(rA)/oligo(dT) as templates in presence of [3H]dTTP.
Experiment [11] concerns Human immunodeficiency virus 1. The experiment can be described thus: Antiviral activity against HIV1 harboring RT K103N/Y181C double mutant infected in human MT4 cells assessed as protection against virus-induced cytopathic effect by MTT assay. The class given is functional, organism-based. As to conditions: Human immunodeficiency virus 1, MT4. For orientation: Protection from cytopathic effect is a common read-out in antiviral testing.

Experiment [12] in a line: Binding affinity to HIV-1 p66/p51 reverse transcriptase K103N/Y181C double mutant/nucleic acid/dTTP ternary complex using poly(rA)/oligo(dT) as templates in presence of [3H]dTTP. Also on record: species or system Human immunodeficiency virus 1.
The subject of experiment [13] is Human immunodeficiency virus 1. The experiment in a line: Binding affinity to HIV-1 p66/p51 reverse transcriptase K103N/Y181C double mutant/nucleic acid/dTTP ternary complex assessed as association constant using poly(rA)/oligo(dT) as templates in presence of [3H]dTTP.

As to `Cc1cc(C)cc(S(=O)(=O)c2c(C(=O)NCc3ccccc3O)[nH]c3ccc(Cl)cc23)c1`, the Vmax(app) in experiment [1] came to 1.2%; in [7], 5.6%; in experiment [8] it was 7.7%. The Ratio turned out to be 4 in [2] and 8 in experiment [4]. Besides, the values for the inhibition constant Ki in experiment [3], in [5] and in experiment [12] were 28 nM, 31 nM and 78 nM, respectively. Besides, the Km in experiment [6] worked out at 5.8 µM. The inhibition at 0.025 µM in experiment [9] worked out at 100%. In addition, the K is 35 10^-3/s in experiment [10] and 42 10^-5/nM/s in experiment [13]. Moreover, the concentration giving a half-maximal response (EC50) in experiment [11] was 6.2 nM.

In general, Ki refers to the equilibrium dissociation constant of an inhibitor or competing ligand from its target. The Km is the substrate concentration at which the rate is half of its maximum. The inhibition is the relative decrease from the control value, in per cent. A word on the EC50: it is the concentration giving half of the maximal effect.

The values above are taken from ChEMBL document CHEMBL4706559, “New indolylarylsulfone non-nucleoside reverse transcriptase inhibitors show low nanomolar inhibition of single and double HIV-1 mutant strains” (Eur J Med Chem, 2020).
